A short description of data set [1]: Therapeutic index, ratio of ED50 for induction of catalepsy in po dosed mouse to ED50 for antipsychotic activity in po dosed mouse assessed as suppression of apomorphine-induced climbing. The following applies: in vivo, read-out: Ratio ED50. It counts as toxicity, organism-based.
A short description of data set [2]: Therapeutic index, ratio of ED50 for induction of catalepsy in po dosed mouse to ED50 for antipsychotic activity in po dosed mouse assessed as reduction in MK-801-induced hyperlocomotor activity. The data set is classed as toxicity, organism-based. The settings on record: in vivo, read-out: Ratio ED50.
The conditions of data set [3]: mouse, in vivo, po.
Description: Induction of catalepsy in po dosed mouse by Horizontal grid and elevated bar test
The species entered for data set [4] is Mus musculus. Briefly: animal or person. The following applies: po.
Description: Antipsychotic activity in po dosed mouse assessed as suppression of apomorphine-induced climbing behaviour
The species entered for data set [5] is Mus musculus. Briefly: animal or person. The following applies: po. The source holds these as a separate data set.
Description: Antipsychotic activity in po dosed mouse assessed as reduction in MK-801-induced hyperlocomotor activity
For data set [6], the target named is T1, D(2) dopamine receptor (Homo sapiens, UniProt P14416).
Description: Binding affinity to dopamine D2 receptor (unknown origin)
Data set [7] has as its target T2, 5-hydroxytryptamine receptor 2A (Homo sapiens, UniProt P28223).
The next data set deals with Histamine H1 receptor (Homo sapiens, UniProt P35367). The data set is classed as ADME.
The target of data set [8] is T1, D(2) dopamine receptor. Briefly: Antagonist activity at D2 receptor (unknown origin). The data set is classed as functional.
Data set [9] concerns the target T3, 5-hydroxytryptamine receptor 1A (Homo sapiens, UniProt P08908).
T3 sequence (P08908 whole entry): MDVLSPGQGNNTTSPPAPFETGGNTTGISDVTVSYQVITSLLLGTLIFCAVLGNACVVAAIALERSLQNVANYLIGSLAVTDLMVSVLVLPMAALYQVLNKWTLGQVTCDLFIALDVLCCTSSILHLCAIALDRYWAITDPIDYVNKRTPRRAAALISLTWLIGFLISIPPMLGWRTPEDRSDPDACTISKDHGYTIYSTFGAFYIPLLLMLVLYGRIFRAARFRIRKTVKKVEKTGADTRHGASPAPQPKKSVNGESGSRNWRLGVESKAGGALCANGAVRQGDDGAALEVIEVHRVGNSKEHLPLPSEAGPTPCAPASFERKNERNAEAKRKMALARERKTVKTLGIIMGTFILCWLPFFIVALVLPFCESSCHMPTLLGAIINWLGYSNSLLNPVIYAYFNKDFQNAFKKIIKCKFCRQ
Kind of data set: Antagonist activity at 5-HT1A receptor (unknown origin). The data set is classed as functional.

Data set [10] concerns the target T2, 5-hydroxytryptamine receptor 2A. Kind of data set: Antagonist activity at 5-HT2A receptor (unknown origin). It counts as functional.
The target of data set [11] is T3, 5-hydroxytryptamine receptor 1A.
The target in data set [12] is T4, 5-hydroxytryptamine receptor 2C (Homo sapiens, UniProt P28335).
T4 sequence (P28335 whole entry): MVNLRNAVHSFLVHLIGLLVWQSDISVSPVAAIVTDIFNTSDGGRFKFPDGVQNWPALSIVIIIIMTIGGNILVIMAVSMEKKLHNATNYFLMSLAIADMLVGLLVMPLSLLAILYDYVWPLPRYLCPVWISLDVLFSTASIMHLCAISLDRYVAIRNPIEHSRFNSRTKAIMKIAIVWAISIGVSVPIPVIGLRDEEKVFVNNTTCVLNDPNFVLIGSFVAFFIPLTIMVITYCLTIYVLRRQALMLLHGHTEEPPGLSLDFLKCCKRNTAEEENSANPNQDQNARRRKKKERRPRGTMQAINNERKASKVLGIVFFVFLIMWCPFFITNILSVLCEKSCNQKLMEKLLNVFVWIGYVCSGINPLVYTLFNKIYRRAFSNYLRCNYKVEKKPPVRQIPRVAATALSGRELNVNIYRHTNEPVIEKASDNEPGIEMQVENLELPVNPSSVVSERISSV

For data set [13], the target named is 5-hydroxytryptamine receptor 6 (Homo sapiens, UniProt P50406).
In data set [14] the target is T5, Alpha-1A adrenergic receptor (Homo sapiens, UniProt P35348).
T5 sequence (P35348 whole entry): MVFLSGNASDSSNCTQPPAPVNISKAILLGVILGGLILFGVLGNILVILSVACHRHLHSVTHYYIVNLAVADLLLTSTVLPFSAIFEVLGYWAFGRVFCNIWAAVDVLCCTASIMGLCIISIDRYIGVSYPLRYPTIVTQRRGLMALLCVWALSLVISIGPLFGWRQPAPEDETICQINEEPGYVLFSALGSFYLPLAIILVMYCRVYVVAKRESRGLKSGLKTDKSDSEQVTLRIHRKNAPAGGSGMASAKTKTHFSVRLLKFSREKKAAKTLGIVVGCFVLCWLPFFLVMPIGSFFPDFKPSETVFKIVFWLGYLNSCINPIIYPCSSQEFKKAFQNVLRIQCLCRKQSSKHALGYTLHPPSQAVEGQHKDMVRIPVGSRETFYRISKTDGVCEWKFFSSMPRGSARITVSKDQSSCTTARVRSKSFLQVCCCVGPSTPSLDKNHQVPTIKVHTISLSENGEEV
Description: Binding affinity to alpha1 adrenoceptor (unknown origin)

Data set [15] concerns the target Voltage-gated inwardly rectifying potassium channel KCNH2 (Homo sapiens, UniProt Q12809).
Description: Inhibition of human ERG by automated patch method relative to control

T1 sequence (P14416 whole entry): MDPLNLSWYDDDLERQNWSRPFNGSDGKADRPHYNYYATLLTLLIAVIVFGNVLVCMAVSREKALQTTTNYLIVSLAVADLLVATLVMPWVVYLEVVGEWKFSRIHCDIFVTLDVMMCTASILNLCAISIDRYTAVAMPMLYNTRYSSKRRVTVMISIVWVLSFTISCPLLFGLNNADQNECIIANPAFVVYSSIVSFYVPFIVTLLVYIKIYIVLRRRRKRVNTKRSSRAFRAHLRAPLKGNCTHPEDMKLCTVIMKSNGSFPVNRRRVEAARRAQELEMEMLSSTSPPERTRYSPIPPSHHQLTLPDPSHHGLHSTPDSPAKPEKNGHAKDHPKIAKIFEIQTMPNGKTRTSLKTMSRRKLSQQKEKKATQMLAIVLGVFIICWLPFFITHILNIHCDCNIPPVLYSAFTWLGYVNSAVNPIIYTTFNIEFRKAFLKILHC
T2 sequence (P28223 whole entry): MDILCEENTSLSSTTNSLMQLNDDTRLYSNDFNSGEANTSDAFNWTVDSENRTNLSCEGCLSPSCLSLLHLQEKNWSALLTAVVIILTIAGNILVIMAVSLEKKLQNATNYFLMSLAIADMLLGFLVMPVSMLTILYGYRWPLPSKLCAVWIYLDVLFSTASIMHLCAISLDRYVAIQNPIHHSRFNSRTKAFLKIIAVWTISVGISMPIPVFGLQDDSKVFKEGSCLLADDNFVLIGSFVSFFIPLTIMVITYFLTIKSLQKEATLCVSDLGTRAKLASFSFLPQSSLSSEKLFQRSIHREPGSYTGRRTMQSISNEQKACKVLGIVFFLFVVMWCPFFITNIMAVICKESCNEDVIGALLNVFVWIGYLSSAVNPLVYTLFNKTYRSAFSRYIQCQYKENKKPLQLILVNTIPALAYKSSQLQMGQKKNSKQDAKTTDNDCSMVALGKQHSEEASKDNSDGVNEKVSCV
Sequence of Voltage-gated inwardly rectifying potassium channel KCNH2 (Q12809 whole entry): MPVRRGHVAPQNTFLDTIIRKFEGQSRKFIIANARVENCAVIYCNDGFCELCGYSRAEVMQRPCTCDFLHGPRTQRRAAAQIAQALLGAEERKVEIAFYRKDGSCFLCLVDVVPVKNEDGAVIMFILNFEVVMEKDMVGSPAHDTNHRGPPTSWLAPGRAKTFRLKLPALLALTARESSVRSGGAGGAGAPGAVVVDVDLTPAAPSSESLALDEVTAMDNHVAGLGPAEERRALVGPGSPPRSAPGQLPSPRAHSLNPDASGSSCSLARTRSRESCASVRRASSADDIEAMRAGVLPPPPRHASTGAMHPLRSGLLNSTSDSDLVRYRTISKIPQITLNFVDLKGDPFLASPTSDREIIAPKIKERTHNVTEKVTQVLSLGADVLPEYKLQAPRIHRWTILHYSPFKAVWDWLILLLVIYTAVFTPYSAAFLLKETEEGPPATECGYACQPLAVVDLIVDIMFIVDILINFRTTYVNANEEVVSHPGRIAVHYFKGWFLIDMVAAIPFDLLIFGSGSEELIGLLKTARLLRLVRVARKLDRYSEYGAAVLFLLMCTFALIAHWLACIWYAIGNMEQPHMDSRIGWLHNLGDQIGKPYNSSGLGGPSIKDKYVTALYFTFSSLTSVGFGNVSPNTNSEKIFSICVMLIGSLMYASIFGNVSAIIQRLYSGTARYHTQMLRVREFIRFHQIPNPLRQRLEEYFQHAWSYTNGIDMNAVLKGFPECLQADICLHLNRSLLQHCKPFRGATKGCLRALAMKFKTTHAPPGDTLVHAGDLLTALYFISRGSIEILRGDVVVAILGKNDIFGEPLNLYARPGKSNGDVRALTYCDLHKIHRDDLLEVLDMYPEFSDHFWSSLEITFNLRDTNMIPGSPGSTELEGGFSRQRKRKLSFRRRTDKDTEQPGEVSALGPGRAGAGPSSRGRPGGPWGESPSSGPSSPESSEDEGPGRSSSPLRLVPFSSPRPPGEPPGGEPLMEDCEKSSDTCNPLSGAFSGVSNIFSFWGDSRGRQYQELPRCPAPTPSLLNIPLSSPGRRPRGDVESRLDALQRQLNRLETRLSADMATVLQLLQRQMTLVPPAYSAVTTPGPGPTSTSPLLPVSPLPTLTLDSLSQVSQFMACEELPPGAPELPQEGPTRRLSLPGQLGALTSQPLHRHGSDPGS
Sequence of Histamine H1 receptor (P35367 whole entry): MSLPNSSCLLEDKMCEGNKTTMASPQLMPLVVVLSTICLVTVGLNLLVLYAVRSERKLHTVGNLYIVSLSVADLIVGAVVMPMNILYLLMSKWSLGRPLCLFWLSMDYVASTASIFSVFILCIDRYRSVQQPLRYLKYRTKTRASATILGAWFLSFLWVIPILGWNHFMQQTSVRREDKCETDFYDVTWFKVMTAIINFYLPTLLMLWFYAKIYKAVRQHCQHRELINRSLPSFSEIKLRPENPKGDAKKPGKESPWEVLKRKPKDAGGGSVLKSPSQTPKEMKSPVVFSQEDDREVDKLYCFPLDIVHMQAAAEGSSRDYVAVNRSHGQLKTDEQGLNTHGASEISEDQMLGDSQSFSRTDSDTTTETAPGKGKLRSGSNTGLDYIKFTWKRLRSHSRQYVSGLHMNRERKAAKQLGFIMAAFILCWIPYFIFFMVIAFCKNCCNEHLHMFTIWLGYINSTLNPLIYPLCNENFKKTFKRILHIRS
Sequence of 5-hydroxytryptamine receptor 6 (P50406 whole entry): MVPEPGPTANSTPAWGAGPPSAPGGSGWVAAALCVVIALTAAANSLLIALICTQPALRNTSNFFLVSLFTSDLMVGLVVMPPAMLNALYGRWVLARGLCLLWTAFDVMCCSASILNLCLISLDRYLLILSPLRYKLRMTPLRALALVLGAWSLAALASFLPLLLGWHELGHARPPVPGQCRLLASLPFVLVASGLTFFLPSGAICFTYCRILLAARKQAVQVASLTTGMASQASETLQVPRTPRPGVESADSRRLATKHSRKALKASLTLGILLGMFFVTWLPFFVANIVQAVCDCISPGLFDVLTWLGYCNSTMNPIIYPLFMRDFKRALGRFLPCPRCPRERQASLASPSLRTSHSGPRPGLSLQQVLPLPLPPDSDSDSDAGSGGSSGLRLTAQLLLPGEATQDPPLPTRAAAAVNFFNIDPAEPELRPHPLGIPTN
Description for Histamine H1 receptor: Binding affinity to histamine H1 receptor (unknown origin)

`O=C(CCCN1CCC(O)(c2ccc(Cl)cc2)CC1)c1ccc(F)cc1` [HALOPERIDOL]: the selectivity ratio in [1] was found to be 3.6; in data set [2], 2.9. Besides, the figures for the ED50 (in [3]; in the data set filed under Mus musculus [4]; in the data set listed under Mus musculus [5]) were 0.3 mg/kg, 0.09 mg/kg and 0.1 mg/kg, respectively.
Regarding `Fc1ccc2c(C3CCN(CCCOc4ccc(CCN5CCOCC5)cc4)CC3)noc2c1`, the Ki – broadly, a measure of affinity in units of concentration, obtained from inhibition or displacement – on D(2) dopamine receptor [6] was determined as 10.5 nM; in [7], 8.4 nM; on Histamine H1 receptor, 968 nM; in [11], 5.6 nM; in [12], 610 nM; in data set [13], 141 nM. The same compound showed a Ki in [14] of 438 nM. Moreover, the IC50 (usually the concentration needed to halve the response being measured) against D(2) dopamine receptor [8] was determined as 11.3 nM; in data set [9], 247 nM; in data set [10], 186 nM; in [15], 2410 nM.

Values taken from ChEMBL document CHEMBL4819047, “Discovery of a new class of multi-target heterocycle piperidine derivatives as potential antipsychotics with pro-cognitive effect” (Bioorg Med Chem Lett, 2021).
